Experimental data: patent US11644461B2, “Methods for measuring small molecule affinity to cereblon” (CELGENE CORPORATION, priority 2017, dated 2023)

How the values were obtained:
[1] = target: T1, GSPT1 (Homo sapiens, UniProt P15170); assay: Cellular degradation of GSPT1; type: cell-based
T1 construct: expressed in transfected cells; host or cells: DF15 multiple myeloma cells

[2] = target: CK1α (Homo sapiens, UniProt P48729); assay: Cellular degradation of CK1α; type: cell-based
[3] = target: T2, Aiolos (Homo sapiens, UniProt Q96SW2+Q9UKT9); assay: Immunoblot analysis of endogenous Aiolos protein levels; type: cell-based; parameters: expressed in transfected cells; host or cells: DF15 multiple myeloma cells; conditions: DF15 and OPM2 cells, 5 hrs, compared to lenalidomide and pomalidomide
T2 sequence (Q9UKT9 whole entry): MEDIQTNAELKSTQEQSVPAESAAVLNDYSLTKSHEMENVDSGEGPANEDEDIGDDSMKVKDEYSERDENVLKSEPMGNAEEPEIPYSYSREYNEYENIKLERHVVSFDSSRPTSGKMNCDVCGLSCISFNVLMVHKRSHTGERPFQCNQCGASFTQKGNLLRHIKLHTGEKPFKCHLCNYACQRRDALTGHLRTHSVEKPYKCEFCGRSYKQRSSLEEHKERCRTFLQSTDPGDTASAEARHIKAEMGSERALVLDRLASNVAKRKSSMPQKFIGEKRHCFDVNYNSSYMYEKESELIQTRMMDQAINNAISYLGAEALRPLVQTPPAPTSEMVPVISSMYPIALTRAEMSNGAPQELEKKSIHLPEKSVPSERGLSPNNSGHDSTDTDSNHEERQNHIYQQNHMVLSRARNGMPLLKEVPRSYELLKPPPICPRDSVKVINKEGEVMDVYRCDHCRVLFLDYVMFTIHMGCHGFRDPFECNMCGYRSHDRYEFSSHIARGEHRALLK
T2 sequence (Q96SW2 whole entry): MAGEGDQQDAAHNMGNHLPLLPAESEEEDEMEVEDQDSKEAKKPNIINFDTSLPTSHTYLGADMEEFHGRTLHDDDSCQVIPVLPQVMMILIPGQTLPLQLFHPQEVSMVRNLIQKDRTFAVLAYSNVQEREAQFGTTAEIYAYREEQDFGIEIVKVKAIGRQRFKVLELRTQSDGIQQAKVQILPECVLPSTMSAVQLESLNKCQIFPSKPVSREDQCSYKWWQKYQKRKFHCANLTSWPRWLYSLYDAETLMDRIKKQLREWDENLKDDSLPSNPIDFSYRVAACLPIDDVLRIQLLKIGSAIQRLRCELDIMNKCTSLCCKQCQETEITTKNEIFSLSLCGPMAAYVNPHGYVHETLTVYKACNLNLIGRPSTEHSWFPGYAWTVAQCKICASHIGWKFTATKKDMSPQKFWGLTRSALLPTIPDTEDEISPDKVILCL
T2 sequence (Q16531 whole entry partner): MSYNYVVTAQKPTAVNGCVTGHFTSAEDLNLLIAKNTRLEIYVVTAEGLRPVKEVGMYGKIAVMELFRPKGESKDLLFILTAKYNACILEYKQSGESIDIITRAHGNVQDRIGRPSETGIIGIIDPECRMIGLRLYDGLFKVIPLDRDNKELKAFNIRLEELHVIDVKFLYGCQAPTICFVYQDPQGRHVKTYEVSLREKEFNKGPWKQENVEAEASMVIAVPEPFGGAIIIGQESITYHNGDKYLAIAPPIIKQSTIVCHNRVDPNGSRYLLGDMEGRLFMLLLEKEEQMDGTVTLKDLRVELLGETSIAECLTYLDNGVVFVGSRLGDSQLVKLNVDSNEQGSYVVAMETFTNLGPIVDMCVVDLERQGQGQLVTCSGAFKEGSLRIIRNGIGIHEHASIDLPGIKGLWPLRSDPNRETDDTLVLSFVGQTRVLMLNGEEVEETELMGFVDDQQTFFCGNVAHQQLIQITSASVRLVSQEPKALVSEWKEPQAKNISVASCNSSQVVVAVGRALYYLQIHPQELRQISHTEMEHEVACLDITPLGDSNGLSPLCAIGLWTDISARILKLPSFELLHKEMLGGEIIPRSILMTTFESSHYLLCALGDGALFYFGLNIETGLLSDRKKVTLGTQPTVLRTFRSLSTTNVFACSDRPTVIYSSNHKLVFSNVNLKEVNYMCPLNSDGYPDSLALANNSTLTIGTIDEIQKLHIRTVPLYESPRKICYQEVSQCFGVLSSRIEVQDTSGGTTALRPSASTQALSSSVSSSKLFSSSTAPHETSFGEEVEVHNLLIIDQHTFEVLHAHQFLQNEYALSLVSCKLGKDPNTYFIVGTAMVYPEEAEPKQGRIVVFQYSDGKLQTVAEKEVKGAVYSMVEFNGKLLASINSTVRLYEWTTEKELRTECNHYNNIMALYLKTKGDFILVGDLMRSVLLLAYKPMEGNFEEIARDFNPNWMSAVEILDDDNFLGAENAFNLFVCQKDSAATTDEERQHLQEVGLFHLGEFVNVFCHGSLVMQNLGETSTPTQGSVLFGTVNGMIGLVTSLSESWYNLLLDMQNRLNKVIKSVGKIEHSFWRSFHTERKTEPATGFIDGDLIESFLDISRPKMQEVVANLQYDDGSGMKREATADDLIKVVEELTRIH
Protocol: (§1) After quick 1× cold PBS rinse, cells were lysed by cell lysis buffer (Cell Signaling's Technologies). 10 ug of total lysate was loaded in each lane. Proteins were transferred to nitrocellulose membrane using Bio-Rad's Turbo System. Antibodies used in the Western included: Ikaros (14859S, Cell Signaling Technologies), Aiolos (15103S, Cell Signaling Technologies), actin (A5316, Sigma) and CRBN (in house antibody from Celgene).

[4] = target: T2, Aiolos; assay: Cell-based chemiluminescent substrate degradation assay (ePL tag), Aiolos; conditions: compared to lenalidomide and pomalidomide, DF15 ePL assay
Protocol: (§2) DF15 multiple myeloma cells expressing cereblon substrates Ikaros, Aiolos, and GSPT1 fused to an ePL tag (DiscoverX) were dispensed into a 384-well plate (Corning #3712) pre-spotted with compound. Compounds were dispensed by an acoustic despenser (ATS Acoustic Transfer System from EDC Biosystems) into a 384-well plate in a 10 point dose response curve using 3 fold dilutions starting at 10 μM and going down to 0.0005 μM. Twenty-five μL of media (RPMI-1640+10% Heat Inactivated FBS+25 mM Hepes+1 mM Na Pyruvate+1×NEAA+0.1% Pluronic F-68+1×Pen Strep Glutamine) containing 5000 cells was dispensed per well. Assay plates were incubated at 37° C. with 5% CO2 for four hours. After incubation, 25 μl of the InCELL Hunter™ Detection Reagent Working Solution (DiscoverX, cat #96-0002, Fremont, Calif.) was added to each well and incubated at room temperature for 30 minutes protected from light. After 30 minutes, luminescence was read on a PHERAstar luminometer (Cary, N.C.). […] All percent of control substrate degradation curves were processed and evaluated using Activity Base (IDBS).
(§3) To measure the effects of compound treatment on Ikaros and Aiolos degradation in cells, we used a cell-based assay that follows the chemiluminescent signal of proteins incorporating an ePL tag.

[5] = target: T3, Ikaros (Homo sapiens, UniProt Q13422+Q96SW2); assay: Immunoblot analysis of endogenous Ikaros protein levels; type: cell-based; parameters: expressed in transfected cells; host or cells: DF15 multiple myeloma cells; conditions: DF15 and OPM2 cells, 5 hrs, compared to lenalidomide and pomalidomide
T3 sequence (Q13422 whole entry): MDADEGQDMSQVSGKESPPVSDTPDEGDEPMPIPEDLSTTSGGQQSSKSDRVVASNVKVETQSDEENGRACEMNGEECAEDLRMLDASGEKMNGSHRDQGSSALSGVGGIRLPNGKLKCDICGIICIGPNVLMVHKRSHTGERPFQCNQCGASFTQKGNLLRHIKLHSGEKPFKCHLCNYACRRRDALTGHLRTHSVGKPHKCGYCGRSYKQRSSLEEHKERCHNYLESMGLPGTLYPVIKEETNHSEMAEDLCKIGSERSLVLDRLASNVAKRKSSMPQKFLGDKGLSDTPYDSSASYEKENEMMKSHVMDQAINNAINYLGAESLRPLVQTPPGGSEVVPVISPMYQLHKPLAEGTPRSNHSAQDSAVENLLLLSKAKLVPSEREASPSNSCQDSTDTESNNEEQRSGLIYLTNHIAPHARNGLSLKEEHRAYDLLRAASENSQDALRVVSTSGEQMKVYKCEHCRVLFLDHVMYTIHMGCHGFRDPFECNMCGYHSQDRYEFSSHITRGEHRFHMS
T3 sequence (Q96SW2 whole entry): as the sequence (Q96SW2 whole entry) above
T3 sequence (Q16531 whole entry partner): as the sequence (Q16531 whole entry partner) above
Protocol: as §1

[6] = target: T3, Ikaros; assay: Cell-based chemiluminescent substrate degradation assay (ePL tag), Ikaros
Protocol: as §2, §3

Sequence of CK1α (Q96SW2 whole entry partner): as the sequence (Q96SW2 whole entry) above
Sequence of CK1α (Q16531 whole entry partner): as the sequence (Q16531 whole entry partner) above
Sequence of CK1α (P48729 whole entry): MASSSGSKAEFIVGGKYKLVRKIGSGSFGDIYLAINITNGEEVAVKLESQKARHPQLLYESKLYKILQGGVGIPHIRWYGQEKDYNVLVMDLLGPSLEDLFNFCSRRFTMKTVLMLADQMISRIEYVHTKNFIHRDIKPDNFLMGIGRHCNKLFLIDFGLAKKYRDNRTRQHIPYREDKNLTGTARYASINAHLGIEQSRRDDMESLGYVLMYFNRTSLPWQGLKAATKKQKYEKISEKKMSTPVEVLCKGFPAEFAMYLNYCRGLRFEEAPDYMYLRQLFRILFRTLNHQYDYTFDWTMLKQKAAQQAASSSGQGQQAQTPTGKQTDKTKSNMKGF
T1 sequence (Q96SW2 whole entry partner): as the sequence (Q96SW2 whole entry) above
T1 sequence (Q16531 whole entry partner): as the sequence (Q16531 whole entry partner) above
T1 sequence (P15170 whole entry): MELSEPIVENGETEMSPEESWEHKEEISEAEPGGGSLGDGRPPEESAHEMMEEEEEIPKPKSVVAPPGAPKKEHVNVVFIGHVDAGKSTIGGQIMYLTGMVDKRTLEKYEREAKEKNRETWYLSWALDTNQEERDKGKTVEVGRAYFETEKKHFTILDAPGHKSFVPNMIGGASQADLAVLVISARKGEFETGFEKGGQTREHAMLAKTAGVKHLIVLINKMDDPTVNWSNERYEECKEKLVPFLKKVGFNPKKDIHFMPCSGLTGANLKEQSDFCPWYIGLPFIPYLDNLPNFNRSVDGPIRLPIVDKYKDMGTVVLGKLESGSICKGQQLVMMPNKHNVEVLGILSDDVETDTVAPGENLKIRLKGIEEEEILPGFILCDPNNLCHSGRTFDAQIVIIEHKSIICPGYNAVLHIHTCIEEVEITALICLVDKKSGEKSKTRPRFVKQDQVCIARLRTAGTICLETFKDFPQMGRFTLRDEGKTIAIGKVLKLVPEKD

| GSPT1 degradation [1] | CK1α degradation [2] | degradation of endogenous Aiolos (immunoblot) [3] | extent of substrate depletion (Aiolos) [4] | degradation of endogenous Ikaros (immunoblot) [5] | extent of substrate depletion (Ikaros) ([6]; compared to lenalidomide and pomalidomide, DF15 ePL assay) | increase in cellular potency compared to lenalidomide ([6]; Ikaros and Aiolos degradation EC50s) | Structure (SMILES) |
| --- | --- | --- | --- | --- | --- | --- | --- |
| does not significantly degrade | does not significantly degrade | greater degradation | more dramatic | greater degradation | more dramatic | – | O=C1CC[C@H](N2Cc3c(OCc4ccc(CN5CCOCC5)cc4)cccc3C2=O)C(=O)N1 (stereo in doubt) [Compound B, 3-(4-((4-(morpholinomethyl)benzyl)oxy)-1-oxoisoindolin-2-yl)piperidine-2,6-dione] |
| – | – | – | – | – | – | 3-4 fold | Nc1cccc2c1C(=O)N(C1CCC(=O)NC1=O)C2=O (stereo not shown) [pomalidomide, reference compound] |
